# Measured values: patent US20210228500A1, “CELLULAR RETINOID BINDING PROTEIN ANTAGONISTS AND USES THEREOF” (CASE WESTERN RESRVE UNIVERSITY, priority 2018, published 2021)
# Entries after “also recorded” stand apart in the source; their conditions may differ.
# Assays:
# CRBP2 = biological target: T1, CRBP2 (Homo sapiens, UniProt P50120); experiment: Fluorescence-binding assay with CRBP2
# T1 construct: 6x histidine tag (C, cleaved yes); thrombin cut site (residual residues after digestion) (C); made in house; host or cells: E. coli BL21 (DE3)
# T1 sequence (P50120 1-134): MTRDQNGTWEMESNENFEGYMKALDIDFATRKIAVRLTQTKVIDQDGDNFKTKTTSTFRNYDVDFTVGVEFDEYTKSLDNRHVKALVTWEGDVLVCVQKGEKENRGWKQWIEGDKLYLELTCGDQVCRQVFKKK
# holo-CRBP1 = biological target: T2, holo-CRBP1 (Homo sapiens, UniProt P09455); experiment: High-throughput screening for CRBP1 ligands; assay type: binding; conditions: 986 compounds at 5 μM, 1 μM holo-CRBP1
# T2 construct: made in house
# T2 sequence (P09455 1-135): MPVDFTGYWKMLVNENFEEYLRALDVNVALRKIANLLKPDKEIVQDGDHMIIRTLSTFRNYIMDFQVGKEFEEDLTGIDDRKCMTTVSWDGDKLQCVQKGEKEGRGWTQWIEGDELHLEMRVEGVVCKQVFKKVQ
# Method: The principle of the fluorescence binding assays described above was adapted for the HTS in a 96-well plate format. Each well contained 0.2 mL of 20 mM Tris/HCl, pH 7.4 and 1 μM of holo-CRBP1. Tested compounds from two independent libraries (Bioactive Lipid I Screening Library form Cayman Chemicals and Screen-Well Bioactive Lipid Library from Enzo Life Science, total of 986 chemicals) were delivered in dimethyl sulfoxide (DMSO) to the final concentration of 5 μM. After 15 min of incubation at room temperature (RT), the samples were excited at 285 nm, and the fluorescence signals from CRBP1 (at 350 nm) and atROL (at 480 nm) were recorded in a Flexstation3 microplate reader (Molecular Devices). Changes in the fluorescence emissions were evaluated by calculating ratio between signals at 480 and 350 nm. To eliminate false positives, only those wells in which the increase in protein fluorescence was accompanied by proportional decline in the fluorescence of atROL were considered as potential hits.
# To search for compounds interacting with CRBP1, we developed an HTS strategy that minimalized experimental bias associated with investigating the binding of hydrophobic ligands to a protein specialized for interaction with small lipophilic molecules. It is based on the fluorescence properties of CRBP1 in complex with its natural ligand, atROL. […]
# [1] = Detection and quantification of abn-CBD in the ocular tissues; assay type: in vivo, Balb/cJ mice; conditions: single dose 15 mg kg^−1 i.p.
# Method: Balb/cJ mice were i.p. injected with 15 mg kg^−1 dose of abn-CBD. At the time points between 1 and 15 h, they were deeply anesthetized by ketamine/xylazine injection and perfused with PBS. Perfused eyes were collected and homogenized in 1 mL of PBS/methanol (v/v). During the homogenization, 100 pmol of an internal standard (3d-abn-CBD) was added. The samples were extracted with 4 mL of hexane and centrifuged at 15,000 g for […] at 4° C. The organic solvent was transferred to glass test tubes and dried in a Savant speedvac concentrator (Thermo Fisher Scientific). The extracted compounds were dissolved in 0.3 mL of ethanol and subjected to LC/MS analysis and quantification as described above.
# RPE65 = biological target: T3, RPE65 (Bos taurus, UniProt Q28175); experiment: RPE65 isomerization activity assay; assay type: biochemical; conditions: bovine RPE microsomes preincubated with 10-50 μM
# T3 construct: from tissue; host or cells: bovine RPE microsomes
# Method: For the retinoid isomerization assay, UV-bleached RPE microsomes isolated from bovine eyes served as a source of robust RPE65 enzymatic activity. The isomerization reaction was performed in the presence of cellular retinaldehyde-binding protein (CRALBP) according to an established methodology published previously. The enzymatic reaction was initiated by addition of atROL the final concentration of 10 μM. After incubation at 30° C. for 30 min, the reaction products were extracted with hexane and analyzed by HPLC as described above.
# Thus, to further probe the biological effect of this compound, we tested its effect on the key enzymes of the visual cycle. For this purpose, microsomes isolated from bovine RPE cells were preincubated with 10-50 μM of abn-CBD (1:1 to 1:5 molar excess of cannabinoid) prior to the initiation of the esterification, isomerization, or oxidation reactions by addition of an adequate retinoid substrate.
# Balb/cJ mice = experiment: Light-induced retinal degeneration (OCT, H&E histology); assay type: in vivo
# Method: Retinal degeneration was induced by exposing dark-adapted Balb/cJ mice to white light with an intensity of ˜50 000 l×, delivered from a 100 W AC90-145 V lightemitting diode (LED) lamp (Home Depot) for 1 h. Abn-CBD in doses of 30, 15, or 7.5 mg kg^−1 was administered by i.p. injection in sterilized 80% DMSO/water (v/v) 1 h before exposure to bright light. […] Retinal morphology was analyzed in vivo by OCT 7 d after the light exposure. Then the mice were euthanized, and their eyes were subjected to staining with H&E staining and imaging.
# To assess the effect of abn-CBD on light-induced retinal degeneration in Balb/cJ mice, the retinas were examined by ultrahigh resolution OCT (Bioptigen). Pupils of mice were first dilated with 1% tropicamide, and the animals were anesthetized with ketamine/xylazine cocktail. Twenty-five frames of OCT images scanned at 0° and 90° were acquired in the B-scan and averaged.
# The structural morphology of mouse retinas challenged with bright light were assessed using H&E staining of paraffin sections. Mouse eyes were fixed in 4% paraformaldehyde and 1% glutaraldehyde followed by paraffin sectioning. Paraffin sections (5 μm thick) were stained with H&E and imaged by light microscopy (Leica).
# cannabinoid receptor 2 = cannabinoid receptor 2 (Homo sapiens, UniProt P34972); conditions: cited from earlier work
# Chain of cannabinoid receptor 2 (P34972 whole entry): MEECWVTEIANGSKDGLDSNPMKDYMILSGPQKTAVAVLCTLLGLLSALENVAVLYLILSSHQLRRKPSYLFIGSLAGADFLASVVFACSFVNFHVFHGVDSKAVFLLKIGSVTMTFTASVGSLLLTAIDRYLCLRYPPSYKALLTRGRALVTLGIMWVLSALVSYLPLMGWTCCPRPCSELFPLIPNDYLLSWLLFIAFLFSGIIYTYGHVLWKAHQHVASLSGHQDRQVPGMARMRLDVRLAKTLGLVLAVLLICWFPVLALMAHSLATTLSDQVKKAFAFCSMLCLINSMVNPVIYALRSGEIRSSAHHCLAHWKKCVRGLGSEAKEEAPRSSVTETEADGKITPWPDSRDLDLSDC
# T3 sequence (Q28175 whole entry): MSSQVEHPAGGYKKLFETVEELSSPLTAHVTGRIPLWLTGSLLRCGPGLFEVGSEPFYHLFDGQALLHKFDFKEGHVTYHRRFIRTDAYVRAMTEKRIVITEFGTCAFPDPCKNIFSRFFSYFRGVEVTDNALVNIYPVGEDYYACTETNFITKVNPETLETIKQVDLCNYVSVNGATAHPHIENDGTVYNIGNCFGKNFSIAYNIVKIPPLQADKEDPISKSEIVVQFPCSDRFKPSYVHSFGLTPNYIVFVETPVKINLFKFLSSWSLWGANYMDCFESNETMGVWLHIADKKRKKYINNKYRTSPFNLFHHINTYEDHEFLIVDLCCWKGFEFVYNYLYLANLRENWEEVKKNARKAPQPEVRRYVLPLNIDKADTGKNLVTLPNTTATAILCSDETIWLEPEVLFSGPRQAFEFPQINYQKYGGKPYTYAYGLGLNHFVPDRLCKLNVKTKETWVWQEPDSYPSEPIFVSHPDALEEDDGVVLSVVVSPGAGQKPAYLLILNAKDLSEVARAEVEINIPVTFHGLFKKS
smiles,measurement,setting,value
"C=C(C)[C@@H]1CCC(C)=C[C@H]1c1c(O)cc(O)cc1CCCCC [abn-CBD, 4-[(1R,6R)-3-Methyl-6-prop-1-en-2-ylcyclohex-2-en-1-yl]-5-pentylbenzene-1,3-diol]",interaction with CRBP2,CRBP2,does not interact; also recorded: absence of interaction
same,HTS result,holo-CRBP1,unique hit; also recorded: single hit
same,half-life,"[1]; Balb/cJ, mouse, eye (PBS-perfused, homogenate), ip",~7 h
same,time of maximum ocular level after the injection,[1],2 h
same,"ocular level, maximum value",[1]; PBS-perfused eyes,58 pmol/eye
same,effect on enzymatic activity of RPE65,RPE65,did not cause a measurable decline
same,retinal histology (H&E) after light exposure,Balb/cJ mice; 7 d post illumination,protective effect; also recorded: partial preservation of the photoreceptor cells
same,"dose causing 50% of maximum effect (ED50), protection against light-induced retinal damage","Balb/cJ mice; i.p. before bright light, OCT (ONL thickness) 7 d later, estimated",~15 mg/kg
same,protection against light-induced retinal damage (OCT retinal morphology),"Balb/cJ mice; i.p. before bright light, OCT a week later",largely protected; also recorded: protective effect
same,interaction with cannabinoid receptor 2,cannabinoid receptor 2,does not interact
